Measured values taken from US20200288710A1, “SUBSTITUTED SULPHONAMIDES FOR CONTROLLING ANIMAL PESTS” (BAYER CROPSCIENCE AKTIENGESELLSCHAFT, priority 2016, published 2020).

What was measured:
Format in all cases: in vivo
Meloidogyne incognita = Meloidogyne incognita test; details: 336 h, lettuce, after 14 days, read-out: nematicidal efficacy (formation of galls)
Outline: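 Gall formation on lettuce roots scored after 14 days: 0% means gall count equals untreated control, 100% means none. Sand vessels held the compound (acetone concentrate diluted in water), southern root-knot nematode egg/larvae suspension and lettuce seeds.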

Tetranychus urticae = Tetranychus urticae spray test, OP-resistant; details: foliar, 144 h, bean leaf discs, after 6 days, read-out: efficacy
Protocol: Tetranychus urticae—Spray Test, OP-Resistant
To produce a suitable preparation of active compound, 1 part by weight of active compound is dissolved using the specified parts by weight of solvent and made up with water containing an emulsifier concentration of 1000 ppm until the desired concentration is attained. To produce further test concentrations, the formulation is diluted with emulsifier-containing water.
Discs of bean leaves (Phaseolus vulgaris) infested with all stages of the greenhouse red spider mite (Tetranychus urticae) are sprayed with an active compound preparation of the desired concentration.
After 6 days, the efficacy in % is determined. 100% means that all the spider mites have been killed; 0% means that no spider mites have been killed.

Myzus persicae [1] = assay: Myzus persicae spray test (Chinese cabbage leaf discs); details: foliar, 120 h, after 5-6 days, read-out: efficacy
Outline: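 Formulated compound in acetone/dimethylformamide, diluted in water with 1000 ppm emulsifier, was sprayed onto Brassica pekinensis leaf discs carrying mixed-stage Myzus persicae. Percent mortality was read 5-6 days later (0% = no aphids killed, 100% = all killed).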

Lucilia cuprina = Lucilia cuprina test; details: 48 h, L1 larvae, after 2 days, read-out: efficacy (kill in %)
Protocol: Lucilia cuprina Test Solvent: dimethyl sulphoxide To produce a suitable preparation of active compound, 10 mg of active compound are mixed with 0.5 ml of dimethyl sulphoxide, and the concentrate is diluted with water to the desired concentration. About 20 L1 larvae of the Australian sheep blowfly (Lucilia cuprina) are transferred into a test vessel containing minced horsemeat and the active compound preparation of the desired concentration. After 2 days, the kill in % is determined. 100% means that all the larvae have been killed; 0% means that no larvae have been killed.

Phaedon cochleariae = Phaedon cochleariae spray test; details: foliar, 168 h, Chinese cabbage leaf discs, larvae, after 7 days, read-out: efficacy
Outline: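 Mortality of beetle larvae scored at day 7, expressed as % (0% none killed, 100% all). Formulation: compound in solvent, made up and further diluted with emulsifier-containing water (1000 ppm emulsifier).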

Myzus persicae [2] = assay: Myzus persicae oral test; details: 120 h, 20 ppm, oral uptake, after 5 days, read-out: efficacy
Outline: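 Aphids of mixed ages imbibe, through parafilm, compound solution (acetone stock, water-diluted) combined with sugar-supplemented IPL41 medium to 200 μl. Efficacy read at day 5 as percent killed, 0% meaning no deaths.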

SMILES	pest or weed control at 20 ppm (Meloidogyne incognita)	pest or weed control at 500 g/ha (Tetranychus urticae)	pest or weed control at 500 g/ha (Myzus persicae [1])	pest or weed control at 100 ppm (Lucilia cuprina)	pest or weed control at 500 g/ha (Phaedon cochleariae)	pest or weed control at 20 ppm (Myzus persicae [2])	pest or weed control at 100 g/ha (Myzus persicae [1]; 100 g/ha)
Cc1cc(C(=O)NS(=O)(=O)c2cc(Cl)ccc2Br)nn1-c1ccccc1C(F)(F)F [Example 293]	90%	100%	–	–	–	–	–
CCn1cc(C(=O)NS(=O)(=O)CC)nc1-c1ccccc1Cl [Example 78]	90%	90%	90%	–	–	–	–
Cn1nc(-c2c(F)cccc2F)nc1C(=O)NS(=O)(=O)c1ccccc1Cl [Example 407]	90%	90%	–	–	–	–	–
Cn1cc(C(=O)NS(=O)(=O)c2ccccc2Br)nc1-c1ccccc1Cl [Example 36]	100%	–	100%	100%	100%	100%	–
Cc1cc(C(=O)NS(=O)(=O)c2ccccc2Cl)nn1-c1ccccc1C(F)(F)F [Example 291]	90%	90%	–	–	–	–	–
Cc1ccccc1-c1nc(C(=O)NS(=O)(=O)CC(F)(F)F)cn1C [Example 87]	–	90%	100%	–	–	–	–
Cc1cccc(C)c1S(=O)(=O)NC(=O)c1cn(C)c(-c2cccc(Cl)c2Cl)n1 [Example 558]	90%	–	90%	100%	100%	100%	–
CCS(=O)(=O)NC(=O)c1cn(C)c(-c2c(Cl)cccc2Cl)n1 [Example 82]	90%	90%	90%	–	–	–	–
Cn1cc(C(=O)NS(=O)(=O)c2cccc(Cl)c2Cl)nc1-c1c(F)cccc1F [Example 173]	100%	90%	100%	–	–	100%	–
CCc1cccc(C)c1S(=O)(=O)NC(=O)c1cn(C)c(-c2c(F)cccc2F)n1 [Example 336]	100%	–	90%	95%	100%	100%	–
Cc1c(F)cccc1S(=O)(=O)NC(=O)c1cn(C)c(-c2c(F)cccc2F)n1 [Example 318]	90%	90%	100%	–	100%	100%	–
Cc1ccc(S(=O)(=O)NC(=O)c2cn(C)c(-c3c(F)cccc3F)n2)s1 [Example 351]	90%	90%	–	–	–	–	90%
COc1ccc(Cl)c(S(=O)(=O)NC(=O)c2nc(-c3c(F)cccc3F)nn2C)c1 [Example 406]	90%	90%	–	–	–	–	–
COc1cc(S(=O)(=O)NC(=O)c2cn(C)c(-c3c(F)cccc3F)n2)c(C)cc1Br [Example 285]	100%	–	90%	100%	100%	100%	–
COc1ccc(Cl)c(S(=O)(=O)NC(=O)c2nc(-c3ccccc3Cl)n(C)c2C)c1 [Example 104]	90%	90%	–	–	100%	100%	–
Cc1ccc(Cl)cc1S(=O)(=O)NC(=O)c1cn(C)c(-c2ccccc2Cl)n1 [Example 37]	100%	–	90%	100%	100%	100%	–
CCS(=O)(=O)NC(=O)c1nc(-c2ccccc2Cl)n(C)c1C [Example 70]	–	90%	90%	–	–	100%	–
Cc1cccc(Cl)c1S(=O)(=O)NC(=O)c1cn(C)c(-c2c(F)cccc2F)n1 [Example 364]	100%	–	100%	100%	100%	100%	–

SMILES	pest or weed control at 20 ppm (Meloidogyne incognita)	pest or weed control at 500 g/ha (Tetranychus urticae)	pest or weed control at 500 g/ha (Myzus persicae [1])	pest or weed control at 100 ppm (Lucilia cuprina)	pest or weed control at 500 g/ha (Phaedon cochleariae)	pest or weed control at 20 ppm (Myzus persicae [2])	pest or weed control at 100 g/ha (Myzus persicae [1]; 100 g/ha)
Cn1cc(C(=O)NS(=O)(=O)c2c(Cl)cccc2Cl)nc1-c1c(F)cccc1Cl [Example 108]	90%	–	100%	95%	100%	100%	–
Cc1ccsc1S(=O)(=O)NC(=O)c1cn(C)c(-c2ccccc2Cl)n1 [Example 212]	90%	90%	100%	–	–	100%	–
CCc1cc(Br)ccc1S(=O)(=O)NC(=O)c1cn(C)c(-c2c(F)cccc2F)n1 [Example 341]	100%	–	90%	100%	100%	100%	–
Cc1ccc(F)cc1S(=O)(=O)NC(=O)c1cn(C)c(-c2ncccc2Cl)n1 [Example 584]	90%	–	100%	100%	100%	100%	–
Cn1cc(C(=O)NS(=O)(=O)c2c(Cl)cccc2Cl)nc1-c1c(Cl)cccc1Cl [Example 102]	90%	–	100%	100%	100%	100%	–
Cn1cc(C(=O)NS(=O)(=O)c2ccc(Cl)cc2)nc1-c1c(F)cccc1F [Example 46]	100%	90%	90%	–	–	–	–
COc1ccc(C)c(S(=O)(=O)NC(=O)c2cn(C)c(-c3c(F)cccc3F)n2)c1 [Example 401]	90%	–	100%	100%	100%	100%	–
Cn1cc(C(=O)NS(=O)(=O)c2ccccc2I)nc1-c1c(F)cccc1F [Example 120]	90%	–	100%	100%	100%	100%	–
Cc1ccsc1S(=O)(=O)NC(=O)c1cn(C)c(-c2ncccc2F)n1 [Example 573]	–	90%	90%	–	–	100%	–
Cc1ccccc1S(=O)(=O)NC(=O)c1cn(C)c(-c2c(F)cccc2F)n1 [Example 27]	90%	–	100%	100%	100%	100%	–
Cc1ccc(F)cc1S(=O)(=O)NC(=O)c1cn(C)c(-c2c(F)cccc2F)n1 [Example 397]	90%	–	100%	100%	100%	100%	–
Cc1cccc(C)c1S(=O)(=O)NC(=O)c1cn(C)c(-c2ccccc2Cl)n1 [Example 218]	90%	–	100%	100%	100%	100%	–
O=C(NS(=O)(=O)CC(F)(F)F)c1cn(-c2ccccc2)c(-c2ccccc2Cl)n1 [Example 74]	–	100%	–	–	–	–	–
Cc1ccccc1S(=O)(=O)NC(=O)c1cn(C)c(-c2cccc(Cl)c2Cl)n1 [Example 519]	100%	–	90%	100%	100%	100%	–
Cn1cc(C(=O)NS(=O)(=O)c2ccccc2Cl)nc1-c1cnccc1Cl [Example 495]	90%	90%	–	–	–	–	–
Cn1cc(C(=O)NS(=O)(=O)c2cccc(Cl)c2F)nc1-c1c(F)cccc1F [Example 315]	100%	90%	100%	–	–	100%	–
Cn1cc(C(=O)NS(=O)(=O)c2cc(Cl)ccc2Cl)nc1-c1ccccc1Cl [Example 56]	90%	–	100%	100%	100%	100%	–
